Laboratory results: US11478533B2, “Semaglutide for use in medicine” (Novo Nordisk A/S, priority 2020, dated 2022)

System: subjects with NASH
Assay: Clinical Trial A: enhanced liver fibrosis (ELF) score
Assay type: in vivo, human
Conditions: week 72; for Change in enhanced liver fibrosis (ELF) at end of trial compared to baseline relative to placebo, ETD: all randomised subjects, estimated treatment difference vs placebo (ANCOVA)
Excerpt: In some embodiments the method of the invention reduces enhanced liver fibrosis (ELF). In some embodiments the term “enhanced liver fibrosis” (also referred to as ELF) as used herein refers to a score derived as a log-linear combination based on blood sample levels of hyaluronic acid (HA), amino-terminal propeptide of type III collagen (P3NP), and tissue inhibitor of metalloproteinase 1 (TIMP1) according to Formula (I): ELF=−7.412+0.681×ln(cHA)+0.775×ln(cP3NP)+0.494×ln(cTIMP1) (I) where cHA is the serum concentration of HA in ng/ml, cP3NP is the serum concentration of P3NP in ng/ml, and cTIMP1 is the serum concentration of TIMP1 in ng/ml.
A 72-week, randomised, double-blind, placebo-controlled, six-armed, parallel group, multicentre, multi-national phase 2 trial comparing once daily (OD) administration of semaglutide in three different doses (0.1 mg, 0.2 mg and 0.4 mg) with placebo in subjects with NASH was carried out. A total of 319 subjects received trial product, 302 subjects completed the trial, and 277 subjects had liver biopsy at trial week 72. Subjects received once daily (a) semaglutide of (i) 0.05 mg for 4 weeks and 0.1 mg for the remaining trial period, (ii) 0.05 mg for 4 weeks, 0.1 mg for 4 weeks, and 0.2 mg for the remaining trial period, (iii) 0.05 mg for 4 weeks, 0.1 mg for 4 weeks, 0.2 mg for 4 weeks, 0.3 mg for 4 weeks, and 0.4 mg for the remaining trial period, or (b) placebo in injection volumes corresponding to (i), (ii) or (iii). Administration was performed via subcutaneous injection using (a) an aqueous solution comprising 1.0 mg/ml semaglutide, 1.42 mg/ml disodium hydrogen phosphate dihydrate, 14.0 mg/ml propylene glycol, 5.50 mg/ml phenol at pH 7.4, or (b) a placebo solution comprising the same ingredients as (a) except no semaglutide. Inclusion criteria for subjects in the trial comprised (i) histologic evidence of NASH based on evaluation of a liver biopsy obtained up to 21 weeks before screening, (ii) a histological NAS >4 with a score of 1 or more in each sub-component of the score, and (iii) liver fibrosis stage 1, 2 or 3 according to the NASH-CRN. Screening was carried out prior to baseline in order to make assessments used to determine subject eligibility. Exclusion criteria for subjects in the trial comprised (i) documented causes of chronic liver disease other than NASH and (ii) no substantial alcohol consumption, defined in the trial as no more than 20 g ethanol per day for women or no more than 30 g ethanol per day for men. Baseline characteristics for all randomised subjects in the trial were as shown in Table A. The term “baseline” as used herein refers to the beginning of the trial prior to administration of semaglutide or placebo. […] The fibrosis stage was determined according to the Kleiner fibrosis classification.

N-epsilon26-[2-(2-{2-[2-(2-{2-[(S)-4-Carboxy-4-(17-carboxyheptadecanoyl-amino)butyrylamino]ethoxy}ethoxy)acetylamino]ethoxy}ethoxy)acetyl] [Aib8, Arg34]GLP-1-(7-37) [Semaglutide]
Change in enhanced liver fibrosis (ELF) at end of trial compared to baseline relative to placebo, ETD (0.1 mg OD s.c.): −0.35 [−0.57; | Change in enhanced liver fibrosis (ELF) at end of trial compared to baseline relative to placebo, ETD (0.2 mg OD s.c.): −0.40 [−0.62; | Change in enhanced liver fibrosis (ELF) at end of trial compared to baseline relative to placebo, ETD (0.4 mg OD s.c.): −0.57 [−0.79; | Reduction of ELF compared to placebo (in words) (all tested semaglutide dosages): reduced ELF significantly more compared to placebo
